Test results reported in US11628186B2, “Method and composition for the reduction of viral replication, duration and spread of the COVID-19 and the flu” (priority 2017, dated 2023).

Tests used:
[1] = tested on: patients with hypoxemia with and without lung diseases; experiment: Comparison of 5 ml of 5 mM sodium pyruvate saline formulas (Table III); format: in vivo, human; settings: 5 ml of 5 mM formula
[2] = tested on: patients with lung diseases including COPD; experiment: Comparison of inhaled salts of pyruvate, 5 ml of 5 mM solution (Table II)
[3] = tested on: patients with sinus & lung diseases including IPF and COPD; experiment: 20 mM sodium pyruvate nasal sprays with individual or combined ions (Table X); format: in vivo, human
From the text: This patent combined dozens of ingredients, including the use of enzyme, growth factors, sugars, nucleotide and vitamins, amino acids and sodium pyruvate, other nutrients and calcium chloride, magnesium chloride and calcium phosphate other ingredients to stimulate the growth of cartilage and collagen for knees and joints.

[4] = tested on: patients suffering from severe lung injury or mitochondrial damage or COPD and Hypoxemia; experiment: Two months nebulized treatment, lung capacity; format: in vivo, human; settings: phosphate and magnesium
From the text: Total lung capacity is the volume in the lungs at maximal inflation, the sum of VC and RV. RV is the residual volume of air remaining in the lungs after a maximal exhalation. VC vital capacity is the volume of air breath out after the deepest inhalation. Vital capacity in males is 4.8 liters and in women 3.8 liters. Slow vital capacity (SVC) is the maximum volume of air that can be exhaled slowly after slow maximum inhalation. Three male patients suffering from severe lung injury or mitochondrial damage or COPD and Hypoxemia were treated as described below for two (2) months. […] In fact, dramatic results were observed within two (2) weeks.
[…] The sterile pyruvate 15 solution is placed into a “Pulmo Aid” nebulizer manufactured by DeVilbiss Co., Somerset, Pa. 15501-0635. The sterile pyruvate solution is nebulized by the Pulmo Aid device fitted with a disposable nebulizer and inhaled by the patient. The patient inhales normally from the Pulmo Aid nebulizer until all of the solution has been nebulized and inhaled. This inhalation step typically takes about ten (10) to twenty 20 (20) minutes. The patients were treated with this inhalation therapy periodically. Initially, treatments are about four (4) times a day at about six (6) hour intervals. Treatments were reduced to three (3) times a day at about eight (8) hour intervals after 20 days of therapy. […]

[5] = tested on: patients with various cancers and chronic Hypoxemia; experiment: Cancer trial pilot study; format: in vivo, human; settings: in saline, without calcium, phosphate and magnesium
Description: In eleven patients with various cancers and chronic Hypoxemia, five with lung cancer, including three with non-small cell lung cancer and six with various other cancers, […], which increased SaO2 levels in these patients to enhance the effect of the chemotherapy or radiation, and increased the synthesis of lung surfactants in lung alveoli cells to protect normal cells and help reduce hypoxia in cancer cells. These patients inhaled the formula one to two hours before they were treated with cancer drugs or radiation, given by current standard methods, and continued to inhale the surfactant enhancer formula twice a day for the eight weeks following the chemo therapy treatment. Because these patients are older, they often lack good nutritional eating habits, which effects their immune system. Thus, the patients were also given a proprietary diet high in a unique blend of antioxidants, and nutrients, that they consumed every day before and after chemo or radiation. Good nutrition is always a plus when patients undergo chemo or radiation as sited in numerous published articles. The diet specifically designed for patients with cancer and hypoxemia included calcium pyruvate, dicalcium phosphate and magnesium in their components. […]

[6] = 20 mM sodium pyruvate nasal spray in saline with the listed ions

## CC(=O)C(=O)[O-].[Na+] [Sodium, sodium pyruvate]
[1]; inhaled
  Percentage Increase in FEV-1 over baseline: 4.0%
  Percentage Increase in SaO2 over baseline: 0%
  Percentage increase of Nitric Oxide over baseline: 18.0%^
  Relief of Congestion and lung tightness 1-10: 5
  Relief of coughing percentage decrease in four hours: 15%
[1]; 1 most negative, 10 best
  Overall Rating 1-10: 7
[2]; 5 ml of 5 mM solution in saline, inhaled
  Increased in FEV-1%: 2.0%
[2]; 5 ml of 5 mM solution, inhaled
  Irritation: none
  Percentage Increase in SaO2 over baseline: 1%
  Percentage increase of Nitric Oxide over baseline: 19.0%
  Relief of congestion, coughing and lung tightness: 5
[2]; 5 ml of 5 mM solution, 1 most negative, 10 best
  Overall Rating 1-10: 8
[3]; [6]
  Increased in FEV-1%: 12.0%
  Irritation: None
  Percentage Increase in SaO2 over baseline: 2%
  Percentage increase of Nitric Oxide over baseline: 20.0%
  Relief of congestion, coughing and lung tightness: 6
[3]; 1 most negative, 10 best
  Overall Rating 1-10: 7
[4]; one of the three patients, end of the two months, without calcium
  improvement in SaO2 levels: 3%
[4]; same three patients, formulas without the calcium
  improvement in lung functions, especially total lung capacity: no or little improvement in lung functions
[5]
  raises nitric oxide: 19%
